The subject of one data set is K562 cells. The experiment in a line: Cell growth inhibitory effect, K562 cells (Cell counting Kit-8, 72 hours).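 For all read-outs here: Read-out is formazan absorbance at 450 nm from WST-8 reduction after a 3 h color reaction, with K562 and U937 cells grown in 96-well plates.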 To be noted: for IC50: Homo sapiens, K562, 72 h, read-out: K562 cells (IC50 value: μM); for Ratio (U937 cells/K562 cells): IC50 U937 cells / IC50 K562 cells. (Formazan colour is commonly taken as a measure of viable cells.)
The subject of a further data set is U937 cells. The experiment in a line: Cell growth inhibitory effect, U937 cells (Cell counting Kit-8, 72 hours). The data set is classed as cell-based. The following applies: Homo sapiens, U-937, BCR-ABL negative U937 cells, WST-8 absorbance. How it is done: The plate was incubated in a CO2 incubator overnight. […] The plate was incubated in a CO2 incubator. After 72 hours, 20 μl

Setting [1] is: read-out: U937 cells (IC50 value: μM).
Where [2] appears, read: continuation of Table 3, read-out: U937 cells (IC50 value: nμM).

Like-named read-outs stand apart in the source and are kept apart here.

Experimental for K562 cells: of Cell counting Kit-8 (5 mmol/l WST-8, 0.2 mmol/1 1-Methoxy PMS, 150 mmol/l NaCl) (manufactured by Dojindo) was added to each well. After reaction for color development in a CO2 incubator for 3 hours, an absorbance of formazan, generated by reduction of WST-8 was determined at 450 nm using Multi-level counter ARVOsx (manufactured by Wallac).
K562 cells and U937 cells (purchased from American Type Culture Collection) were cultured in a RPMI-1640 medium (manufactured by Sigma) containing 10% (v/v) fetal calf serum (FCS) (manufactures by Sigma) (RPMI-1640/FCS). K562 cells and U937 cells were seeded at a density of 5000 cells/100 μl/well and 4000 cells/100 μl/well in each of 96-hole-plate (manufactured by costar), respectively. The plate was incubated in a CO2 incubator overnight. […] The resulting solution was diluted 500 times in a RPMI-1640/FCS medium and then 100 μl of the diluent was added in a well. The plate was incubated in a CO2 incubator. After 72 hours, 20 μl

By melting point is commonly meant the temperature of the solid-liquid transition. What is called IC50 is the concentration that gives 50% inhibition. For `COc1cc(C(=O)Nc2ccc(C)c(Nc3nccc(-c4cncc(Br)c4)n3)c2)ccc1CN1CCN(C)CC1.Cl` [Example 14, 3-methoxy-4-(4-methylpiperazin-1-ylmethyl)-N-{3-[4-(5-bromopyridin-3-yl)pyrimidin-2-ylamino]-4-methylphenyl}benzamide hydrochloride], the melting point is 168 to 169 °C (dec.). Also, in the data set with K562 cells, the IC50 is 0.0079 µM and the “Ratio (U937 cells/K562 cells)” value is given as 253. Also, in the data set on U937 cells (setting [1]), the IC50 was determined as 2 µM.

Take `CCN1CCN(Cc2ccc(C(=O)Nc3ccc(C)c(Nc4nccc(-c5cncnc5)n4)c3)cc2C(F)(F)F)CC1.Cl` [Example 16, 4-(4-ethylpiperazin-1-ylmethyl)-3-trifluoromethyl-N-{4-methyl-3-[4-(5-pyrimidinyl)pyrimidin-2-ylamino]phenyl}benzamide hydrochloride]: the melting point is 256 to 259 °C (dec.). For the same compound, in the data set on K562 cells, the IC50 is 0.0011 µM and the “Ratio (U937 cells/K562 cells)” value was 3727. Also, in the data set with U937 cells (setting [1]), the IC50 stood at 4.1 µM.

In the case of `CCN1CCN(Cc2ccc(C(=O)Nc3ccc(C)c(Nc4nccc(-c5cncc(Br)c5)n4)c3)cc2C(F)(F)F)CC1.Cl` [Example 18, 4-(4-ethylpiperazin-1-ylmethyl)-3-trifluoromethyl-N-{3-[4-(5-bromopyridin-3-yl)pyrimidin-2-ylamino]-4-methylphenyl}benzamide hydrochloride], the melting point is 166 to 172 °C (dec.). Also, in the data set on K562 cells, the IC50 is 0.0048 µM and the “Ratio (U937 cells/K562 cells)” value was determined as 958. Moreover, the IC50 in the data set with U937 cells (setting [1]) stood at 4.6 µM.

`Cc1ccc(NC(=O)c2ccc(CN3CCN(C)CC3)c(Cl)c2)cc1Nc1nccc(-c2cncnc2)n1.Cl` [Example 20, 3-chloro-4-(4-methylpiperazin-1-ylmethyl)-N-{4-methyl-3-[4-(5-pyrimidinyl)pyrimidin-2-ylamino]phenyl}benzamide hydrochloride]: the melting point is 197 to 200 °C. Also, in the data set on K562 cells, the IC50 amounted to 0.0026 µM and the “Ratio (U937 cells/K562 cells)” value turned out to be 11154. Moreover, the IC50 with U937 cells (setting [2]) turned out to be 29 µM.

In the case of `Cc1ccc(NC(=O)c2ccc(CN3CCN(C)CC3)c(C(F)(F)F)c2)cc1Nc1cc(-c2cncnc2)ccn1.Cl` [Example 23, 4-(4-methylpiperazin-1-ylmethyl)-3-trifluoromethyl-N-{4-methyl-3-[4-(5-primidinyl)pyridin-2-ylamino]phenyl}benzamide hydrochloride], the melting point is 203 to 206 °C (dec.). Further, in the data set with K562 cells, the IC50 amounted to 0.0011 µM and the “Ratio (U937 cells/K562 cells)” value is listed as 4545. Moreover, the IC50 in the data set on U937 cells (setting [2]) turned out to be 5 µM.

As for `CCN1CCN(Cc2ccc(C(=O)Nc3ccc(C)c(Nc4cc(-c5cncnc5)ccn4)c3)cc2C(F)(F)F)CC1.Cl` [Example 25, 4-(4-ethylpiperazin-1-ylmethyl)-3-trifluoromethyl-N-{4-methyl-3-[4-(5-pyrimidinyl)pyridin-2-ylamino]phenyl}benzamide hydrochloride], the melting point was 254 to 256 °C (dec.). Further, in the data set on K562 cells, the IC50 was found to be 0.0018 µM and the “Ratio (U937 cells/K562 cells)” value came to 2111. The IC50 with U937 cells (setting [2]) came to 3.8 µM.

For `CCN1CCN(Cc2ccc(C(=O)Nc3ccc(C)c(Nc4cc(-c5cccnc5)ccn4)c3)cc2C(F)(F)F)CC1.Cl` [Example 27, 4-(4-ethylpiperazin-1-ylmethyl)-3-trifluoromethyl-N-{4-methyl-3-[4-(3-pyridyl)pyridin-2-ylamino]phenyl}benzamide hydrochloride], the melting point is 230 to 235 °C (dec.). In the data set on K562 cells, the IC50 stood at 0.0025 µM and the “Ratio (U937 cells/K562 cells)” value is given as 1040. Besides, the IC50 with U937 cells (setting [2]) was 2.6 µM.

As to `Cc1ccc(NC(=O)c2ccc(CN3CCN(C)CC3)c(C(F)(F)F)c2)cc1Nc1cc(-c2cccnc2)ncn1.Cl` [Example 31, 4-(1-methylpiperazin-4-ylmethyl)-3-trifluoromethyl-N-{4-methyl-3-[6-(3-pyridyl)pyrimidin-4-ylamino]phenyl}benzamide hydrochloride], the melting point was 190 to 194 °C (dec.). Also, in the data set with K562 cells, the IC50 was determined as 0.0069 µM and the “Ratio (U937 cells/K562 cells)” value turned out to be 304. Moreover, the IC50 in the data set with U937 cells (setting [2]) was 2.1 µM.

For `Cc1ccc(NC(=O)c2ccc(CN3CCN(C)CC3)c(C(F)(F)F)c2)cc1Nc1cc(-c2cncnc2)ncn1.Cl` [Example 33, 4-(1-methylpiperazin-4-ylmethyl)-3-trifluoromethyl-N-{4-methyl-3-[6-(5-pyrimidinyl)pyrimidin-4-ylamino]phenyl}benzamide hydrochloride], the melting point was 203 to 207 °C (dec.). In the data set on K562 cells, the IC50 was 0.0084 µM and the “Ratio (U937 cells/K562 cells)” value is given as 1310. For the same compound, in the data set on U937 cells (setting [2]), the IC50 was 11 µM.

On to `Cc1ccc(NC(=O)c2ccc(CN3CCN(CCF)CC3)c(C(F)(F)F)c2)cc1Nc1nccc(-c2cncnc2)n1.Cl` [Example 35, 4-[4-(2-fluoroethyl)piperazin-1-ylmethyl]-3-trifluoromethyl-N-{4-methyl-3-[4-(5 yrimidinyl)pyrimidin-2-ylamino]phenyl}benzamide hydrochloride], for which the melting point is 213 to 233 °C (dec.). For the same compound, in the data set on K562 cells, the IC50 was 0.0034 µM and the “Ratio (U937 cells/K562 cells)” value was 3235. The IC50 in the data set on U937 cells (setting [2]) amounted to 11 µM.

As to `Cc1ccc(NC(=O)c2ccc(CN3CCN(CCO)CC3)c(C(F)(F)F)c2)cc1Nc1nccc(-c2cncnc2)n1.Cl` [Example 37, 4-[4-(2-hydroxyethyl)piperazin-1-ylmethyl]-3-trifluoromethyl-N-{4-methyl-3-[4-(5-pyrimidinyl)pyrimidin-2-ylamino]phenyl}benzamide hydrochloride], the melting point was 248 to 255 °C (dec.). In addition, in the data set on K562 cells, the IC50 turned out to be 0.0014 µM and the “Ratio (U937 cells/K562 cells)” value is 7143. Besides, the IC50 with U937 cells (setting [2]) stood at 10 µM.

Regarding `Cc1ccc(NC(=O)c2ccc(CN3CCNCC3)c(C(F)(F)F)c2)cc1Nc1nccc(-c2cncc(Br)c2)n1.Cl` [Example 40, 4-(1-piperazinylmethyl)-3-trifluoromethyl-N-{3-[4-(5-bromopyridin-3-yl)pyrimidin-2-ylamino]-4-methylphenyl}benzamide hydrochloride], the melting point is 176 to 182 °C (dec.). For the same compound, in the data set with K562 cells, the IC50 was 0.0039 µM and the “Ratio (U937 cells/K562 cells)” value was found to be 1128. Besides, the IC50 with U937 cells (setting [2]) is 4.4 µM.

With `Cc1ccc(NC(=O)c2ccc(CN3CCNCC3)c(C(F)(F)F)c2)cc1Nc1cc(-c2cccnc2)ccn1.Cl` [Example 42, 4-(1-piperazinylmethyl)-3-trifluoromethyl-N-{4-methyl-3-[4-(3-pyridyl)pyridin-2-ylamino]phenyl}benzamide hydrochloride], the melting point is 190 to 195 °C (dec.). In the data set on K562 cells, the IC50 is 0.0068 µM and the “Ratio (U937 cells/K562 cells)” value is listed as 206. Further, the IC50 with U937 cells (setting [2]) amounted to 1.4 µM.

Regarding `Cc1ccc(NC(=O)c2ccc(CN3CCNC(C(N)=O)C3)c(C(F)(F)F)c2)cc1Nc1nccc(-c2cncnc2)n1.Cl` (stereo not drawn) [Example 45, 4-(3-carbamoylpiperazin-1-ylmethyl)-3-trifluoromethyl-N-{4-methyl-3-[4-(5-pyrimidinyl)pyrimidin-2-ylamino]phenyl}benzamide hydrochloride], the melting point was in the range of 205 to 208 °C. Moreover, in the data set on K562 cells, the IC50 came to 0.0031 µM and the “Ratio (U937 cells/K562 cells)” value was determined as 4839. The IC50 with U937 cells (setting [2]) amounted to 15 µM.

For `Cc1ccc(NC(=O)c2ccc(CN3CCN(C)C(C(N)=O)C3)c(C(F)(F)F)c2)cc1Nc1nccc(-c2cncnc2)n1.Cl` (stereo not drawn) [Example 50, 4-(3-carbamoyl-4-methylpiperazin-1-ylmethyl)-3-trifluoromethyl-N-{4-methyl-3-[4-(5-pyrimidinyl)pyrimidin-2-ylamino]phenyl}benzamide hydrochloride], the melting point was 203 to 208 °C. In the data set on K562 cells, the IC50 was found to be 0.0046 µM and the “Ratio (U937 cells/K562 cells)” value is 3478. Further, the IC50 in the data set with U937 cells (setting [2]) was 16 µM.

Consider `Cc1ccc(NC(=O)c2ccc(CN3CC(CN(C)C)C3)c(C(F)(F)F)c2)cc1Nc1nccc(-c2cncnc2)n1.Cl` [Example 54, 4-[3-(dimethylaminomethyl)azetidin-1-ylmethyl]-3-trifluoromethyl-N-{4-methyl-3-[4-(5-pyrimidinyl)pyrimidin-2-ylamino]phenyl}benzamide hydrochloride], for which the melting point was 142 to 152 °C (dec.). Moreover, in the data set on K562 cells, the IC50 is 0.0096 µM and the “Ratio (U937 cells/K562 cells)” value was found to be 1667. The IC50 in the data set on U937 cells (setting [2]) turned out to be 16 µM.

As for `Cc1ccc(NC(=O)c2ccc(CN3CCN[C@H](C)C3)c(C(F)(F)F)c2)cc1Nc1nccc(-c2cncnc2)n1.Cl` [Example 56, (+)-4-((R)-3-methylpiperazin-1-ylmethyl)-3-trifluoromethyl-N-{4-methyl-3-[4-(5-pyrimidinyl)pyrimidin-2-ylamino]phenyl}benzamide hydrochloride], the melting point fell in the range of 254 to 258 °C. In the data set on K562 cells, the IC50 was 0.0046 µM and the “Ratio (U937 cells/K562 cells)” value came to 957. In addition, the concentration for half-maximal inhibition (IC50) with U937 cells (setting [2]) was found to be 4.4 µM.

`CCN(CC)[C@H]1CCN(Cc2ccc(C(=O)Nc3ccc(C)c(Nc4nccc(-c5cncnc5)n4)c3)cc2C(F)(F)F)C1.Cl` [Example 57, (−)-4-[(S)-3-(N,N-diethylamino)pyrrolidin-1-ylmethyl]-3-trifluoromethyl-N-{4-methyl-3-[4-(5-pyrimidinyl)pyrimidin-2-ylamino]phenyl}benzamide hydrochloride] displayed a melting point of 200 to 202 °C. In the data set with K562 cells, the IC50 came to 0.0058 µM and the “Ratio (U937 cells/K562 cells)” value came to 966. Further, the IC50 in the data set on U937 cells (setting [2]) turned out to be 5.6 µM.

The values above are taken from patent US7728131B2, “Amide derivative and medicine” (Nippon Shinyaku Co., Ltd., priority 2003, dated 2010).
